From US3987200A, “Method for increasing cardiac contractility” (Eli Lilly and Company, priority 1975, dated 1976) come the findings set out here.

Structures can show the parent of a compound that is named as a salt.

One series is described as follows: LD50 in mice. Particulars: mouse, in vivo.
The next series concerns dogs. The series is described as follows: Cardiac and Blood Pressure Effects in dogs (Table I). The format is in vivo. The note with it: for Contractile Potency ED50 / Contractile Potency ED100: i.v. infusion; for Blood Pressure Change at Effective dose ED50 / Heart Rate Increase at Effective dose ED50 / Blood Pressure Change at Effective dose ED100 / Heart Rate Increase at Effective dose ED100: i.v.

The LD50 is the dose at which mortality reaches 50%. The compound `CC(CCc1ccc(O)cc1)NCCc1ccc(O)c(O)c1` (racemic) [dl-, 3,4-dihydroxy-N-[3-(4-hydroxyphenyl)-1-methyl-n-propyl]-β-phenethylamine] came in with an LD50 in the series “LD50 in mice” of 73.2 ± 3.68 mg/kg. Besides, in the series with dogs, the “Contractile Potency ED50” value was found to be 3 ± 1 µg/kg/min and the “Contractile Potency ED100” value was 10 ± 3 µg/kg/min. In the series with dogs (at ED50), the “Blood Pressure Change at Effective dose ED50” value was found to be 3 ± 5 mm. Hg and the “Heart Rate Increase at Effective dose ED50” value was found to be 13 ± 4 Beats/minute. In addition, in the series with dogs (at ED100), the “Blood Pressure Change at Effective dose ED100” value is 6 ± 6 mm. Hg and the “Heart Rate Increase at Effective dose ED100” value worked out at 30 ± 4 Beats/minute.
As for `CC(CCc1ccc(O)cc1)NCCc1ccc(O)c(O)c1` (single isomer, unassigned) [l-, l-3,4-dihydroxy-N-[3-(4-hydroxyphenyl)-1-methyl-n-propyl]-β-phenethylamine hydrochloride], in the series on dogs (Table I data), the “activity on contractile force (in words)” value was “somewhat less active than either the d-isomer or dl-racemate on contractile force” and the “pressor activity (in words)” value is “marked pressor activity”. Moreover, in the series with dogs (hydrochloride), the “Contractile Potency ED50” value turned out to be 9 ± 2 µg/kg/min and the “Contractile Potency ED100” value was 25 ± 5 µg/kg/min. In the series on dogs (at ED50, hydrochloride), the “Blood Pressure Change at Effective dose ED50” value is reported as 39 ± 3 mm. Hg and the “Heart Rate Increase at Effective dose ED50” value is on record as 8 ± 5 Beats/minute. In the series on dogs (at ED100, hydrochloride), the “Blood Pressure Change at Effective dose ED100” value amounted to 63 ± 4 mm. Hg and the “Heart Rate Increase at Effective dose ED100” value is given as 28 ± 9 Beats/minute.
Regarding `CC(CCc1ccc(O)cc1)NCCc1ccc(O)c(O)c1` (single isomer, unassigned) [d-, d-3,4-dihydroxy-N-[3-(4-hydroxyphenyl)-1-methyl-n-propyl]-β-phenethylamine], in the series with dogs, the “Contractile Potency ED50” value is 2.8 ± .3 µg/kg/min and the “Contractile Potency ED100” value is 6.1 ± .4 µg/kg/min. Also, in the series on dogs (at ED50), the “Blood Pressure Change at Effective dose ED50” value is 8 ± 2 mm. Hg and the “Heart Rate Increase at Effective dose ED50” value came out at 11 ± 3 Beats/minute. Besides, in the series with dogs (at ED100), the “Blood Pressure Change at Effective dose ED100” value is 6 ± 3 mm. Hg and the “Heart Rate Increase at Effective dose ED100” value is given as 28 ± 7 Beats/minute.
Compound `CC(Cc1ccc(O)c(O)c1)NCCCc1ccc(O)cc1` (racemic) [3,4-dihydroxy-N-[3-(4-hydroxyphenyl)-n-propyl]-α-methyl-β-phenethylamine hydrobromide] had an LD50 in “LD50 in mice” of 82.7 ± 5.72 mg/kg.
